Assay results: article PMC3034713, “Targeting Vascular NADPH Oxidase 1 Blocks Tumor Angiogenesis through a PPARα Mediated Mechanism” (PLoS ONE, 2011)

Tests used:
[1] = biological target: T1, NOX1 (Homo sapiens, UniProt Q9Y5S8); assay: NOX inhibition in cell free assay, membranes from cells overexpressing NOX1 (Amplex Red ROS); assay type: biochemical; conditions: cell-free, membranes from NOX1 over-expressing cells
T1 construct: expressed in transfected cells
T1 sequence (Q9Y5S8 1-564): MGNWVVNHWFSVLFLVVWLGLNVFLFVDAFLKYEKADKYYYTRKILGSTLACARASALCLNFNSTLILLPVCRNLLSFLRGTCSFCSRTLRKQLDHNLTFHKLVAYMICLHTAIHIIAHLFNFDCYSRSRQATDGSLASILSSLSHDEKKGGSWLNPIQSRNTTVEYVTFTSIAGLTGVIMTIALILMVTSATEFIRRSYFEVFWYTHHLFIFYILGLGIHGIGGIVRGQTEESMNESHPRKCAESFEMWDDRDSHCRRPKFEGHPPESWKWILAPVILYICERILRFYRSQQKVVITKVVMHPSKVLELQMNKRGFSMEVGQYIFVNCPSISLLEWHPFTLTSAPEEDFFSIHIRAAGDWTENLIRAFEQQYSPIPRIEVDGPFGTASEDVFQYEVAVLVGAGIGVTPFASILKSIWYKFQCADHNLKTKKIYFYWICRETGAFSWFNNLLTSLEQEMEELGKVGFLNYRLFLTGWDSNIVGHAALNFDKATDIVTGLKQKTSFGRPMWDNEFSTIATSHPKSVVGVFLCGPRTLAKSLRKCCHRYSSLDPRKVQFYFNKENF
T1 sequence (P13498 2-195 partner limits assumed): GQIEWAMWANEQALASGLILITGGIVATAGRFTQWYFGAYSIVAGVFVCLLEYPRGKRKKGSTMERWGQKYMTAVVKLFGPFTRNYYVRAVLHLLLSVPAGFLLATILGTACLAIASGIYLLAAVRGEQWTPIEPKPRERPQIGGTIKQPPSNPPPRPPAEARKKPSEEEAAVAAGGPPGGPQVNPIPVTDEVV
Procedure: (§1) Membranes from NOX2 expressing PMN cells or from cells overexpressing NOX1 or NOX4 were prepared as previously described. After resuspension in sonication buffer (11% sucrose, 120 mM NaCl, 1 mM EGTA in PBS, pH 7.4 for NOX4-expressing cells) or in relax buffer (10 mM Pipes, 3 mM NaCl, 3.5 mM MgCl2, 0.1 M KCl, pH 7.4), cells were broken by sonication and centrifuged (200 g, 10 min). The supernatant was loaded onto a 17/40% (w/v) discontinuous sucrose gradient and centrifuged (150,000 g for 30 min). Membrane fractions were collected and stored at −80°C. ROS production measurements of membranes expressing different NOX subunits was determined as previously described using the Amplex Red method (Invitrogen).

[2] = biological target: xanthine oxidase (Homo sapiens, UniProt P47989); assay: Xanthine oxidase inhibition, concentration-response; assay type: biochemical
Chain of xanthine oxidase (P47989 whole entry, species assumed): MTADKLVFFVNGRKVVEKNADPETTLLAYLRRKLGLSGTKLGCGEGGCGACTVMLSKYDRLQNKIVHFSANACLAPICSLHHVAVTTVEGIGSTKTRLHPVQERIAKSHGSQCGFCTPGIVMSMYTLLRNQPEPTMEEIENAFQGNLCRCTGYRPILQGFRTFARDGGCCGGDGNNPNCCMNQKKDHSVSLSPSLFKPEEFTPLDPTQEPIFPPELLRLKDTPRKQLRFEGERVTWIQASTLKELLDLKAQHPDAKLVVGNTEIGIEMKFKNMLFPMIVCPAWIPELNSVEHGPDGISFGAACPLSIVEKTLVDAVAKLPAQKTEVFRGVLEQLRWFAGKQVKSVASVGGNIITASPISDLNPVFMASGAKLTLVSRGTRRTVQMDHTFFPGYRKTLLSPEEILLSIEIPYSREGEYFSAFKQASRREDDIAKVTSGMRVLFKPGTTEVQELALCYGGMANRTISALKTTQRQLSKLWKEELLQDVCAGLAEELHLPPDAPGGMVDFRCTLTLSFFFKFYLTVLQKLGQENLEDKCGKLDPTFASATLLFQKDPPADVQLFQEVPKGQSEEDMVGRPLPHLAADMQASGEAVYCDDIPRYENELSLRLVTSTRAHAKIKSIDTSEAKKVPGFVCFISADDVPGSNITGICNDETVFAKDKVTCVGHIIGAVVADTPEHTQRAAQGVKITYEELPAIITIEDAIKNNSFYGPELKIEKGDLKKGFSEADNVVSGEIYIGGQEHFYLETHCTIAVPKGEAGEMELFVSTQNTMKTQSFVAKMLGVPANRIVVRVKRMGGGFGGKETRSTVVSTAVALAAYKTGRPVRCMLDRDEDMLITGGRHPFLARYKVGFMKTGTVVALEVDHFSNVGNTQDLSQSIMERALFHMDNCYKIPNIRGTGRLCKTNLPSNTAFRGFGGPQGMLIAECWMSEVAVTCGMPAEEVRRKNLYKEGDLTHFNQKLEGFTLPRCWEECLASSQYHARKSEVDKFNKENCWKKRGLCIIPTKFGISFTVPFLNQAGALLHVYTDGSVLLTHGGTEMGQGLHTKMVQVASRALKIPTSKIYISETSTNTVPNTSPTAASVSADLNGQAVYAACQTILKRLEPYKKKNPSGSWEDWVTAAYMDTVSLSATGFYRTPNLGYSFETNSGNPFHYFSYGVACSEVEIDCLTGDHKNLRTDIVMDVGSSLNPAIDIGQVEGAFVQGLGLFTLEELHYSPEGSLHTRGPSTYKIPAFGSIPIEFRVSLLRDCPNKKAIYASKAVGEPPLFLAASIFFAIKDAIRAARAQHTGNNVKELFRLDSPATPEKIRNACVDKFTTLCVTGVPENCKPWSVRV

[3] = biological target: T2, NOX2 (Homo sapiens, UniProt P04839); assay: NOX inhibition in cell free assay, membranes from NOX2 expressing PMN cells (Amplex Red ROS); assay type: biochemical; conditions: cell-free, membranes from NOX2 expressing PMN cells
T2 construct: Membranes from NOX2 expressing PMN cells; endogenous in cells; host or cells: PMN cells
T2 sequence (P04839 2-570 limits assumed): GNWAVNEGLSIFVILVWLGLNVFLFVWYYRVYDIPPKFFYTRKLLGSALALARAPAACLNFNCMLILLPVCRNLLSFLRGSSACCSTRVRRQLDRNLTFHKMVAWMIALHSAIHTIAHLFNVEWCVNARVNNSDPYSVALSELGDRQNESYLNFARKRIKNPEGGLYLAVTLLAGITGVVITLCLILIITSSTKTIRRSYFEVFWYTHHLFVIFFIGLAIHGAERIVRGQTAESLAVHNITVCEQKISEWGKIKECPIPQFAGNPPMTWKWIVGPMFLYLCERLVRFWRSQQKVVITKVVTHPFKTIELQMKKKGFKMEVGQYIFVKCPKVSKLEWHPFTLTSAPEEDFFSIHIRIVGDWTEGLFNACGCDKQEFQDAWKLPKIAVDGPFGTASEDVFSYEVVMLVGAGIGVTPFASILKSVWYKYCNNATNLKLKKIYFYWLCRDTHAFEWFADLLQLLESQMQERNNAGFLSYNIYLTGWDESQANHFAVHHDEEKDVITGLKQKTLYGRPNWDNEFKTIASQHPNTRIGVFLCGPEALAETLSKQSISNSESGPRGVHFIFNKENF
T2 sequence (P13498 2-195 partner limits assumed): T1 sequence (P13498 2-195 partner limits assumed)
Procedure: as §1

[4] = biological target: T3, NOX4 (Homo sapiens, UniProt Q9NPH5); assay: NOX inhibition in cell free assay, membranes from cells overexpressing NOX4 (Amplex Red ROS); assay type: biochemical; conditions: cell-free, membranes from NOX4 over-expressing cells
T3 construct: expressed in transfected cells
T3 sequence (Q9NPH5 whole entry, species assumed, one chain of several): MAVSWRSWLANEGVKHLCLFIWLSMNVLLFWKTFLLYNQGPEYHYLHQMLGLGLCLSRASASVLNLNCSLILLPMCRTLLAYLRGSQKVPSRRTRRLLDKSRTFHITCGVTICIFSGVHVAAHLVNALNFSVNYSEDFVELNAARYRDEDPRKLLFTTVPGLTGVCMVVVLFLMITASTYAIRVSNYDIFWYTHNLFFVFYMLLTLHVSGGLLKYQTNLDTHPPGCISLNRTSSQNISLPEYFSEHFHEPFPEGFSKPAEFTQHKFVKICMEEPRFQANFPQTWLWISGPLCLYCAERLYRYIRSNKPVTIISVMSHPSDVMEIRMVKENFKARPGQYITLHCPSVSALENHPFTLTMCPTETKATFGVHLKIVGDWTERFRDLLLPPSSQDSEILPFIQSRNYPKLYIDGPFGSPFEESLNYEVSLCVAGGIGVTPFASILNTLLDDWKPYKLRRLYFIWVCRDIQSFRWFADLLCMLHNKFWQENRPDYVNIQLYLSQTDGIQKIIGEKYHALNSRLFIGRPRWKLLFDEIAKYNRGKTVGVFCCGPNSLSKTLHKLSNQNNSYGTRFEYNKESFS
Procedure: as §1

[5] = tested on: MLEC; assay: Wound healing assay (endothelial cell migration); assay type: cell-based, mouse; conditions: NOX1-deficient MLEC, 10 µM, compared to untreated NOX1-deficient cells
Procedure: Wound healing assay was performed as described previously. Briefly, endothelial cells were plated in Matrigel (Becton Dickinson) precoated 96 wells plates. One day after plating the cell monolayer was scratched to make a regular wound. Cells were allowed to migrate overnight. Migration area was then measured and calculated using the Metamorph program (MDS Analytical Technologies).

[6] = tested on: NOX1-silenced endothelial cell lines; assay: p65 NF-κB nuclear translocation after VEGF or bFGF stimulation (Western blot, immunofluorescence); assay type: cell-based, mouse; conditions: 10 µM before stimulation with VEGF and bFGF
Procedure: After stimulation, nuclear and cytoplasmic proteins of endothelial cells were extracted according to Tauzin et al.. Briefly, cells were incubated in TKM buffer (50 mM Tris-HCl pH 7.4, 25 mM KCl, 5 mM MgCl2 and 1 mM EGTA) containing 1% Triton and protease inhibitor cocktail CLAP [10 µg/ml chymostatin, leupeptin, antipain and pepstatin A (Sigma) for 30 minutes on ice, sonicated for 2 minutes and centrifuged at 5000 g for 30 minutes. The pellet and the supernatant were separated and solubilized in sample buffer.
Cells were stimulated for the indicated time and then lysed in TNT buffer (50 mM Tris, 150 mM NaCl, 0.5% Triton X-100) complemented with protease inhibitor cocktail CLAP and phosphatase inhibitor cocktail [25 mM NaF, 20 mM b-Glycerophosphate, 5 mM HEPES, 2.5 mM EDTA, 0.5 mM Orthovanadate]. Membranes were blocked in PBS containing 0.5% BSA and hybridized with different antibodies.

[7] = tested on: MLEC; assay: Endothelial cell sprouting assay (tube-like structure formation, 3D culture); assay type: cell-based, mouse; conditions: NOX1-deficient MLEC, 10 µM, compared to untreated NOX1-deficient cells
Procedure: Sprouting assay was performed as described previously. Briefly, endothelial cells were plated in 96 well plates at 8,000 cells per well in a 3D fibrin gel. Above the gel, 10% FCS containing DMEM was complemented with 200 KIU/ml of Aprotinin (Sigma). Length of branches was evaluated using the Metamorph program. Results are expressed in mm of skeleton length/number of cells.

[8] = tested on: tEnd siRNA NOX1; assay: Quantitative real-time PCR of target genes in NOX1-silenced endothelial cell line; assay type: cell-based, mouse
Procedure: Total RNA from treated cells was extracted using RNeasy minikit (Qiagen). Total RNA was reverse-transcribed with the Superscript III first strand RT-PCR kit (Invitrogen). Quantitative real-time PCR was performed using SybrGreen master mix (Applied Biosystems) on Step one plus Real-time PCR machine (Applied Biosystems). Primer sequences are listed in the Materials and Methods S1.
For mouse cells, siRNAs were nucleofected using the Amaxa technology (Lonza). Gene silencing was assessed 48 hours after nucleofection by quantitative RT-PCR. For HUVEC, shRNA vectors (SABiosciences) were nucleofected using Amaxa. Gene silencing was assessed 48 hours after nucleofection by quantitative RT-PCR.

[9] = tEnd siRNA NOX1 + GW 6471, compared to control cells

Row | Structure (SMILES) | Ki [1] [nM] | Ki [2] [nM] | Ki [3] [nM] | Ki [4] [nM] | cell migration of NOX1-deficient MLEC [5] | deficient nuclear translocation of NF-kB in NOX1-silenced cells [6] | tube formation of NOX1-deficient MLEC [7] | PPARα up regulation in NOX1-silenced cells ([8]; NOX1-silenced cells incubated with antagonist, data not shown) | Catalase expression, fold increase or decrease [8, 9] [fold] | GPX3 expression, fold increase or decrease [8, 9] [fold] | MMP-2 expression, fold increase or decrease [8, 9] [fold] | MMP-9 expression, fold increase or decrease [8, 9] [fold] | VCAM-1 expression, fold increase or decrease [8, 9] [fold] | VE-cadherin expression, fold increase or decrease [8, 9] [fold] | VEGF expression, fold increase or decrease [8, 9] [fold] | bFGF expression, fold increase or decrease [8, 9] [fold] | uPAR expression, fold increase or decrease [8, 9] [fold]
1 | c1ccc([I+]c2ccccc2)cc1 [DPI, Diphenyliodonium, reference compound] | 70 ± 10 | 50 | 70 | 70 |  |  |  |  |  |  |  |  |  |  |  |  | 
2 | CCC(=O)NC[C@H](Cc1ccc(OCCc2nc(-c3ccccc3)oc2C)cc1)N/C(C)=C\C(=O)c1ccc(C(F)(F)F)cc1 [GW6471] |  |  |  |  | restored | no longer observed | restored | no longer observed | 0.92±0.012 | 0.70±0.01 | 2.13±0.24 | 0.47±0.07 | 0.57±0.18 | 0.9±0.2 | 0.68±0.04 | 0.64±0.25 | 1.34±0.6
